Assay [1] deals with BRD2 (Homo sapiens, UniProt P25440). The assay can be described thus: AlphaScreen binding inhibition assay with recombinant human BRD2. In general terms: Alpha assays give light when donor and acceptor beads are brought close together.
The target of assay [2] is T1, BRD4 (Homo sapiens, UniProt O60885).
T1 construct: residues 42–168, BRD4-BD1 (N-terminal bromodomain)
As to the kind of experiment: X-ray crystal structure at […] Å (soaked crystals); IC50 from AlphaScreen. In kind it is binding.

One may read the IC50 as the midpoint of a concentration-inhibition curve.

BRD2, sequence (P25440 whole entry): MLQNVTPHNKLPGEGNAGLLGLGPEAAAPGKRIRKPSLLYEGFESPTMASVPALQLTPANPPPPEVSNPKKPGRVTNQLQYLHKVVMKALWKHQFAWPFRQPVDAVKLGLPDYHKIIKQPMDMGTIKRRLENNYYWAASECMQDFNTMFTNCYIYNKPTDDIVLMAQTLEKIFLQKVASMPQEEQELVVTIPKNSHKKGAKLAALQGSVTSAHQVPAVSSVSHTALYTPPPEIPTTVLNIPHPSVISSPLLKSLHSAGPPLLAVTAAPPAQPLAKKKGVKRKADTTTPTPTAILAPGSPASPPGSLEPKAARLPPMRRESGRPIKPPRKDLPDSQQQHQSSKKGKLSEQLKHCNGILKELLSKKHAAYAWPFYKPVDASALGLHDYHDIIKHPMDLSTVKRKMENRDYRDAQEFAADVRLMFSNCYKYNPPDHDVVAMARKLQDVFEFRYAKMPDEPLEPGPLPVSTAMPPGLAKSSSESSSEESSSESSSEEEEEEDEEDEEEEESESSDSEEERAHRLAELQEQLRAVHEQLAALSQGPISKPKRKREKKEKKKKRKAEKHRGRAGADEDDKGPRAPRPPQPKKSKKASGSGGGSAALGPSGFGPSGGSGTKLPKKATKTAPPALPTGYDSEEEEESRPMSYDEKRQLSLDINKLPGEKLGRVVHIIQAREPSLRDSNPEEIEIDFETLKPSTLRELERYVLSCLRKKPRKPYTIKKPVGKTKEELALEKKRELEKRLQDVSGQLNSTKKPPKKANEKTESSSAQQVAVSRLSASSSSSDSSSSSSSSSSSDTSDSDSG

For `CC(=O)N(C)C` [DMA, N,N-Dimethylacetamide], the IC50 in assay [1] amounted to 11 mM; in assay [2], 6 mM.

For the origin of these results see article PMC5296751, “N,N Dimethylacetamide a drug excipient that acts as bromodomain ligand for osteoporosis treatment” (Scientific Reports, 2017).
